The text below walks through data of patent US20130241815A1, “INK CONTAINING ANTHRAQUINONE BASED DYE, DYE USED IN THE INK, AND DISPLAY” (MITSUBISHI CHEMICAL CORPORATION, priority 2010, published 2013).

SMILES strings stand for the structures.

Common to all, as to assay type: physicochemical
The nature of series [1]: Preparation of ink and evaluation of solubility in low polar solvents (saturated solution, absorption maximum, εC). To be noted: for Absorption maximum wavelength: Decalin solution; for Solubility: Decalin, saturated solution, room temperature.
Assay in series [2]: as above
To be noted: for Solubility: saturated solution, room temperature. The procedure:
Each of Illustrative Compounds 1 to 4 and Comparative Compounds 1, 2 and 4 was dissolved in each of the solvents of n-decane, tetradecane, ISOPAR M, and ISOPAR G, thereby preparing an ink. On that occasion, the solubility of each of the compounds in each of the solvents was measured in the following manner.
Each of the compounds (dyes) was added to each of the solvents until a dissolution residue was generated, and the contents were ultrasonically treated at a water temperature of 30° C. for 30 minutes. After standing at room temperature for 12 hours, the resultant was subjected to centrifugal filtration with a 0.1 μm filter by using an ultrasmall-sized centrifuge (centrifugal force: 5,200×g). Each of the obtained saturated solutions was diluted with an appropriate concentration, a solubility of each of the dyes was calculated from a relation with a previously measured absorption coefficient, and a product ∈C (cm^−1) of a molar absorption coefficient ∈ (L mole^−1 cm^−1) at the absorption maximum wavelength and a concentration C (mole L^−1) of the saturated solution was determined.

Series [3] can be described thus: Light resistance test (residual rate of dye after 2 h irradiation, 400 W high pressure mercury vapor lamp). The conditions noted are these: 1 mg dye in 200 mL, 10 to 30° C. The procedure: The light resistance of each of the compounds (dyes) was measured in the following manner.
1 mg of each of the compounds (dyes) was dissolved in 200 mL of each of the low polar solvents within a container, thereby preparing an ink. This ink was irradiated with light for 2 hours by using a photoreactor UVL-400HA (400 W high pressure mercury vapor lamp), manufactured by Riko Kagaku Sangyo K.K. During that interval, the container was cooled with a coolant, thereby keeping an internal temperature at from 10 to 30° C. A residual rate of the dye was determined by calculation according to the following expression, thereby evaluating the light resistance.
Residual rate=(Absorbance at the maximum absorption wavelength after irradiation)/(Absorbance at the maximum absorption wavelength before irradiation)

Take `CNc1ccc(Nc2ccc(C)cc2)c2c1C(=O)c1ccccc1C2=O` [Comparative Compound 1, C.I. Solvent Blue 11, reference compound]: the Absorption maximum wavelength in series [1] was 636 nm; in series [2] (ISOPAR G solution), 594 nm; in series [2] (ISOPAR M solution), 594 nm; in series [2] (Tetradecane solution) it was 595 nm; in series [2] (n-Decane solution), “Unmeasurable”. The Solubility in series [1] is reported as 0.07 % by mass; in series [2] (ISOPAR G) it was 0.02 % by mass; in series [2] (ISOPAR M), 0.02 % by mass; in series [2] (Tetradecane), 0.04 % by mass; in series [2] (n-Decane) it was “Low”. Moreover, the εC in series [2] (Decalin solution) was 26 cm⁻¹; in series [2] (ISOPAR G solution), 7 cm⁻¹; in series [2] (ISOPAR M solution), 7 cm⁻¹; in series [2] (Tetradecane solution), 12 cm⁻¹. For the same compound, the “εC (molar absorption coefficient at absorption maximum x concentration of saturated solution)” value in series [2] (n-Decane solution) is listed as “Low”.
`CC(C)CNc1ccc(Nc2ccccc2)c2c1C(=O)c1ccccc1C2=O` [Comparative Compound 2, reference compound]: in series [2] (n-Decane solution), the Absorption maximum wavelength turned out to be 614 nm and the “εC (molar absorption coefficient at absorption maximum x concentration of saturated solution)” value is 200 cm⁻¹. In series [2] (n-Decane), this compound displayed a Solubility of 0.7 % by mass.
For the compound `CCCCN(CCCC)c1ccc(N=Nc2nc(C#N)c(C#N)n2CC#N)c(NC(C)=O)c1` [Comparative Compound 3, reference compound], the “Residual rate after light resistance test” value (from here on “Residual rate”) in series [3] (n-Decane) is reported as 45%.
As to `C=CCn1c(N=Nc2ccc(N(CCC)CCC)cc2NC(C)=O)nc(C#N)c1C#N` [Comparative Compound 4, reference compound], the Absorption maximum wavelength is reported as 520 nm in series [1]; “Unmeasurable” in series [2] (ISOPAR G solution); “Unmeasurable” in series [2] (ISOPAR M solution); “Unmeasurable” in series [2] (Tetradecane solution); “Unmeasurable” in series [2] (n-Decane solution). Further, the Solubility in series [1] was 0.01 % by mass; in series [2] (ISOPAR G) it was “Low”; in series [2] (ISOPAR M), “Low”; in series [2] (Tetradecane), “Low”; in series [2] (n-Decane), “Low”. In addition, the εC in series [2] (Decalin solution) is 7 cm⁻¹; in series [2] (ISOPAR G solution), “Low”; in series [2] (ISOPAR M solution), “Low”; in series [2] (Tetradecane solution), “Low”. In addition, the “εC (molar absorption coefficient at absorption maximum x concentration of saturated solution)” value in series [2] (n-Decane solution) is reported as “Low”.
As for `CCCCC(CC)CNc1ccc(NCC(CC)CCCC)c2c1C(=O)c1ccccc1C2=O` (stereo not drawn) [Illustrative Compound 1], the Absorption maximum wavelength in series [1] was determined as 645 nm; in series [2] (ISOPAR G solution) it was 649 nm; in series [2] (ISOPAR M solution), 650 nm; in series [2] (Tetradecane solution), 651 nm; in series [2] (n-Decane solution), 650 nm. In addition, the Solubility was 9.98 % by mass in series [1]; 7.3 % by mass in series [2] (ISOPAR G); 4.2 % by mass in series [2] (ISOPAR M); 5.7 % by mass in series [2] (Tetradecane); 6.6 % by mass in series [2] (n-Decane). Besides, the εC in series [2] (Decalin solution) turned out to be 3400 cm⁻¹; in series [2] (ISOPAR G solution), 1900 cm⁻¹; in series [2] (ISOPAR M solution), 1200 cm⁻¹; in series [2] (Tetradecane solution), 1600 cm⁻¹. In series [2] (n-Decane solution), the “εC (molar absorption coefficient at absorption maximum x concentration of saturated solution)” value amounted to 2000 cm⁻¹.
On to `CCCCC(CC)CNc1ccc(NCC(CC)CCCC)c2c1C(=O)c1ccc(C(=O)OCC)cc1C2=O` (stereo not drawn) [Illustrative Compound 2], for which, in series [2] (n-Decane solution), the Absorption maximum wavelength stood at 668 nm and the “εC (molar absorption coefficient at absorption maximum x concentration of saturated solution)” value turned out to be 1000 cm⁻¹. The compound further came in with a Solubility in series [2] (n-Decane) of 4.7 % by mass.
`CCCCC(CC)CNc1ccc(NCC(CC)CCCC)c2c1C(=O)c1ccc(C(=O)OCC(C)C)cc1C2=O` (stereo not drawn) [Illustrative Compound 3]: the Absorption maximum wavelength in series [1] is recorded as 662 nm; in series [2] (ISOPAR G solution), 667 nm; in series [2] (ISOPAR M solution), 668 nm; in series [2] (Tetradecane solution), 668 nm; in series [2] (n-Decane solution) it was 668 nm. The Solubility amounted to 10.0 % by mass in series [1]; 10.8 % by mass in series [2] (ISOPAR G); 5.1 % by mass in series [2] (ISOPAR M); 4.7 % by mass in series [2] (Tetradecane); 7.5 % by mass in series [2] (n-Decane). For the same compound, the “Residual rate” value in series [3] (ISOPAR G) stood at 88%; in series [3] (ISOPAR M), 77%; in series [3] (Tetradecane) it was 94%; in series [3] (n-Decane) it was 78%. Besides, the εC in series [2] (Decalin solution) is 3100 cm⁻¹; in series [2] (ISOPAR G solution) it was 2700 cm⁻¹; in series [2] (ISOPAR M solution) it was 1400 cm⁻¹; in series [2] (Tetradecane solution), 1200 cm⁻¹. Further, the “εC (molar absorption coefficient at absorption maximum x concentration of saturated solution)” value in series [2] (n-Decane solution) came out at 1900 cm⁻¹.
For the compound `CCCCC(CC)CNc1ccc(NCC(CC)CCCC)c2c1C(=O)c1ccc(C(=O)OCCC)cc1C2=O` (stereo not drawn) [Illustrative Compound 4], the “Residual rate” value in series [3] (ISOPAR G) stood at 95%; in series [3] (ISOPAR M) it was 99%; in series [3] (Tetradecane), 93%; in series [3] (n-Decane), 97%. In addition, the Absorption maximum wavelength in series [2] (ISOPAR G solution) came to 666 nm; in series [2] (ISOPAR M solution), 667 nm; in series [2] (Tetradecane solution), 668 nm; in series [2] (n-Decane solution), 668 nm. In addition, the εC in series [2] (ISOPAR G solution) came out at 1400 cm⁻¹; in series [2] (ISOPAR M solution), 1200 cm⁻¹; in series [2] (Tetradecane solution) it was 1300 cm⁻¹. Further, the Solubility in series [2] (ISOPAR G) was found to be 5.5 % by mass; in series [2] (ISOPAR M), 4.5 % by mass; in series [2] (Tetradecane) it was 4.9 % by mass; in series [2] (n-Decane), 9.5 % by mass. For the same compound, the “εC (molar absorption coefficient at absorption maximum x concentration of saturated solution)” value in series [2] (n-Decane solution) was found to be 2400 cm⁻¹.
